Source: patent publication US9120728B2, “Modulators of cortical dopaminergic- and NMDA-receptor-mediated glutamatergic neurotransmission” (INTEGRATIVE RESEARCH LABORATORIES SWEDEN AB, priority 2011, dated 2015)

Experiments:
[1] = system: DOPAC (3,4-dihydroxyphenylacetic acid) in the rat striatum; assay: Increase of DOPAC (3,4-dihydroxyphenylacetic acid) in the rat striatum after systemic administration; type: in vivo; details: sc, estimated ED50 on increase of DOPAC in rat striatum, dose range 0-100 μmol/kg s.c., curve fitting
Excerpt: The increased turnover of dopamine in the terminal areas of the ascending dopaminergic projections of the mammalian brain can be illustrated by measuring of changes in biochemical indices in the brain with the characteristic features of dopamine antagonists, e.g. producing increases in concentrations of dopamine metabolites such as 3,4-dihydroxyphenyl-acetic acid (DOPAC) in the striatum.
After the behavioural activity sessions, the rats are decapitated and their brains rapidly taken out and put on an ice-cold petri-dish. The limbic forebrain, the striatum, the frontal cortex and the remaining hemispheral parts of each rat are dissected and frozen. Each brain part is subsequently analyzed with respect to its content of monoamines and their metabolites.
The monoamine transmitter substances (NA (noradrenaline), DA (dopamine), 5-HT (serotonin)) as well as their amine (NM (normethanephrine), 3-MT (3-methoxytyramine)) and acid (DOPAC (3,4-dihydroxyphenylacetic acid), 5-HIAA (5-hydroxyindoleacetic acid), HVA (homovanillic acid)) metabolites are quantified in brain tissue homogenates by HPLC separations and electrochemical detection
The analytical method is based on two chromatographic separations dedicated for amines or acids. Two chromatographic systems share a common auto injector with a 10-port valve and two sample loops for simultaneous injection on the two systems. Both systems are equipped with a reverse phase column (Luna C18(2), dp 3 μm, 50×2 mm i.d., Phenomenex) and electrochemical detection is accomplished at two potentials on glassy carbon electrodes (MF-1000, Bioanalytical Systems, Inc.). The column effluent is passed via a T-connection to the detection cell or to a waste outlet. This is accomplished by two solenoid valves, which block either the waste or detector outlet. By preventing the chromatographic front from reaching the detector, better detection conditions are achieved. The aqueous mobile phase (0.4 ml/min) for the acid system contains citric acid 14 mM, sodium citrate 10 mM, MeOH 15% (v/v) and EDTA 0.1 mM. Detection potentials relative to Ag/AgCl reference are 0.45 and 0.60V. […] Detection potentials relative to Ag/AgCl reference are 0.45 and 0.65V.
ED50 value for the increase of DOPAC in striatum is calculated by curve fitting. The evaluation is based on 40 animals over the dose range 0, 3.7, 11, 33 and 100 μmol/kg s.c. in two combined experiments. The DOPAC levels are normalised to control and fitted by least square minimization to the function “End-(End-Control)/(1+(dose/ED50)^slope)”. The four parameters (Control, End, ED50 and Slope) are fitted with the restrictions: ED50>0, 0.5<Slope<3, 350<End<400% of control. To estimate confidence levels for the parameters, the fit is repeated 100 times with a random evenly distributed squared weight (0 to 1) for every measurement value. Presented ED50-ranges cover 95% of these values.

Arc gene expression = assay: Increase of Arc gene expression (Arc mRNA, real-time PCR) in rat striatum and cortex; type: in vivo; details: estimated ED50 on increase of Arc gene expression
Protocol: To investigate potential effects of compounds of the present invention on cortical and striatal NMDA receptor related synaptic signalling, Arc mRNA induction was assessed upon acute administration of a compound of the present invention. […]
Total RNA is prepared by the guanidin isothiocyanate method reported by Chomczynski & Sacchi [Chomczynski P & Sacchi N; Anal. Biochem. 1987 162 156-159]. […] The sample concentration was determined spectrophotometrically by a NanoDrop ND-1000. A quality indicator number and an integrity number of r-RNA were measured with an Experion (Bio-Rad) on random samples. […]
For real-time PCR measurements, 0.7 μl of the cDNA reaction was amplified in a 25 μl reaction mixture containing 1×PCR buffer, 0.2 mM dNTP, 3.7 mM MgCl2, 0.15 mM SYBR green, 0.4 μM of each primer, and 1U JumpStart Taq DNA polymerase. Real-time PCR was measured on CFX96 (Biorad) using the following settings for all genes, 60 s pre-incubation at 95° C., followed by 40 cycles of denaturation at 95° C. for 10 s, annealing at 56° C. for 10 s, and elongation at 72° C. for 10 s.
Initial DNA amounts were quantified by a standard curve constructed for every gene using 6 serial 4-fold dilutions of purified PCR products. […]
Arc gene amounts were normalised using the geometric mean of the amounts of the two house-keeping genes assessed (HPRT and cyclophilin A). […]

With CCCNCCOc1cc(F)cc(S(C)(=O)=O)c1 [Example 1, N-[2-(3-fluoro-5-methylsulfonyl-phenoxy)ethyl]propan-1-amine] the ED50 [1] was 8.5 µmol/kg, the ED50 (Arc gene expression; rat (prefrontal) cortex, evaluated to be below the lowest dose) was under 11 µmol/kg and the ED50 (Arc gene expression; sc, rat striatum, systemic administration, 0-100 μmol/kg s.c.) was 13 µmol/kg.
